Experimental data taken from PMC10009750, “Development of Selective ADAMTS-5 Peptide Substrates to Monitor Proteinase Activity” (Journal of Medicinal Chemistry, 2023).
Non-standard residues stand in square brackets, D forms with d. No end group written: not given here. Tyr(3-NO2) = N[C@@H](Cc1ccc(O)c([N+](=O)[O-])c1)C(=O)O; 2Abz = Nc1ccccc1C(=O)O

Columns and labels:
Type in all cases: biochemical
[1] = target: T1, MMP-2ΔC (catalytic domain of MMP-2) (Homo sapiens, UniProt P08253); experiment: Selectivity studies: cleavage of FRET peptide substrates by MMP-2ΔC; conditions: substrate 20 μM, MMP-2ΔC 5–10 nM, TNC buffer with 0.005% (v/v) Brij-35, 37 °C; mean of 3–4 independent experiments in triplicate
T1 construct: the catalytic domain of MMP-2, i.e., MMP-2ΔC; made in house; host or cells: HEK293 cells (previously transfected stocks)
Procedure: (§1) All proteinase assays were performed at 37 °C in a SpectraMax M5 spectrophotometer (Molecular Devices, San Jose, USA) using a 96-well black microplate (Greiner bio-one, Stonehouse, UK) unless otherwise stated. […] N-TIMP-3 was purified as described previously[30] and CT-1746 was a gift from Dr. Yoshifumi Itoh (Kennedy Institute of Rheumatology, University of Oxford). All analyses were carried out using Prism 9 software (GraphPad, La Jolla, CA, USA).
(§2) Selectivity studies are described for Abz-TESE↓SRGAIY-Dpa-KK-NH2, the library parent peptide 3, and hit peptides 18–26. A solution of Abz-TESE↓SRGAIY-Dpa-KK-NH2 (22.22 μM) in freshly prepared TNC buffer with 0.005% (v/v) Brij-35 (90 μL) was added to a 96-well clear bottom microplate (Greiner bio-one, Stonehouse, UK) in triplicate. A substrate-only background control was also added in triplicate (90 μL). The resultant solutions were incubated at 37 °C (30 min). An ADAMTS or MMP proteinase was added to substrate wells (10 μL) to give a final proteinase concentration of either 50–90 nM (TS4-4), 25–200 nM (TS5-5), 5–10 nM (MMP-2ΔC), 30 nM (MMP-9ΔC), 92 nM (MMP-1), or 3 μM (MMP-3). TNC buffer with 0.005% (v/v) Brij-35 was added to substrate-only control wells (10 μL). The relative fluorescence intensity was measured at 37 °C for 1 h with readings every 20 s. Activity was read from underneath the microplate, which was covered with a low evaporation lid. […] For each ADAMTS and MMP proteinase, the assay was performed 2–4 times. […] Final rates were expressed as a percentage of substrate cleavage by TS5-5 (mean ± SEM) or in μM s^–1 μM^–1 of proteinase.

[2] = system: MMP-1 (full length); experiment: Selectivity studies: cleavage of the current substrate by MMP-1; conditions: substrate 20 μM, MMP-1 92 nM, up to 72 h, 37 °C; single triplicate experiment
Procedure: as §1
Selectivity studies are described for Abz-TESE↓SRGAIY-Dpa-KK-NH2, the library parent peptide 3, and hit peptides 18–26. A solution of Abz-TESE↓SRGAIY-Dpa-KK-NH2 (22.22 μM) in freshly prepared TNC buffer with 0.005% (v/v) Brij-35 (90 μL) was added to a 96-well clear bottom microplate (Greiner bio-one, Stonehouse, UK) in triplicate. A substrate-only background control was also added in triplicate (90 μL). The resultant solutions were incubated at 37 °C (30 min). […] The relative fluorescence intensity was measured at 37 °C for 1 h with readings every 20 s. Activity was read from underneath the microplate, which was covered with a low evaporation lid. […] Final rates were expressed as a percentage of substrate cleavage by TS5-5 (mean ± SEM) or in μM s^–1 μM^–1 of proteinase.

[3] = target: T2, TS5-5 (combined catalytic and disintegrin domain of ADAMTS-5) (Homo sapiens, UniProt Q9UNA0); experiment: Cleavage of FRET peptide substrates by TS5-5 in solution (activity/selectivity studies); conditions: substrate 20 μM, 37 °C
T2 construct: ADAMTS-5 (i.e. TS5-5, residues 264–555); FLAG; made in house; host or cells: HEK293 cells (previously transfected stocks)
T2 sequence (Q9UNA0 264-555): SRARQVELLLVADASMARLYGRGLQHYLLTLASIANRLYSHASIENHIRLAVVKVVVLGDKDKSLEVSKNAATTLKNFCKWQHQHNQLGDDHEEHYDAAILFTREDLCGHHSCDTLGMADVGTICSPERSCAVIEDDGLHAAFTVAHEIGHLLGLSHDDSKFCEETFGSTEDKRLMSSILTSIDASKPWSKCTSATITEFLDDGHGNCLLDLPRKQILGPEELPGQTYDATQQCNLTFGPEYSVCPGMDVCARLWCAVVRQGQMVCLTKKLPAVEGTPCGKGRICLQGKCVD
Procedure: as §1
To test whether active TS5-5 had been purified, three concentrations of proteinase were assayed. A solution of Abz-TESE↓SRGAIY-Dpa-KK-NH2 (22.22 μM) in freshly prepared TNC buffer with 0.02% (v/v) Brij-35 (180 μL) was added to a 96-well black microplate in triplicate for each proteinase concentration. A substrate-only background control was also added in triplicate (180 μL). The resultant solutions were incubated at 37 °C (30 min). TS5-5 proteinase in TNC buffer with 0.02% (v/v) Brij-35 (20 μL) was added to wells to give final proteinase concentrations of 80 nM, 40 nM and 20 nM. TNC buffer with 0.02% (v/v) Brij-35 (20 μL) was also added to background control wells. The change in RFU was measured at 37 °C for 1 h, with readings every 20 s. Following subtraction of background fluorescence intensity, linear regression analysis of the linear part of each curve was used to determine the cleavage rate, which was expressed as the mean ± SEM in RFU s^–1. For cases where a single concentration of TS5-5 or TS4-4 was assayed, the same procedure was used but with 0.005% (v/v) Brij-35 and using the 5-FAM-AE↓LQGRPISIAK-TAMRA substrate for TS4-4 (0.56 μM). To convert cleavage rates to nM s^–1 nM^–1, the rate in RFU s^–1 was divided by the final concentration of proteinase (nM), then divided by the gradient of the calibration curve for Abz or 5-FAM (expressed in RFU nM^–1).
as §2

T1 sequence (P08253 110-465 limits assumed, stated change not applied): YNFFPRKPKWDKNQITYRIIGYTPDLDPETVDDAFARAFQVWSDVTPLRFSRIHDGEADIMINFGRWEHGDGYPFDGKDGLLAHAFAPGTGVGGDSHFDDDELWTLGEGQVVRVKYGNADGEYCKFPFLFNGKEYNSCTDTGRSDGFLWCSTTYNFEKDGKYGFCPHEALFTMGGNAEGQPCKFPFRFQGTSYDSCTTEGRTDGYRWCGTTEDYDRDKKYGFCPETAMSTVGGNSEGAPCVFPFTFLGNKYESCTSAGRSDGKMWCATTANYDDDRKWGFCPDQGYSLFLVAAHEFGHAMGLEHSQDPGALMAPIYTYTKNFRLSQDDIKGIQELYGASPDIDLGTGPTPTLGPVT

Substance	rate of cleavage by MMP-2ΔC [1] [μM s^–1 μM^–1]	cleavage by MMP-1 [2]	improvement in cleavage (overall cleavage rate) by TS5-5 compared to the current substrate [3] [fold]
Abz-TESE↓SRGAIY-Dpa-KK-NH2 [current, ortho-aminobenzoyl(Abz)-TESE↓SRGAIY-N-3-[2,4-dinitrophenyl]-L-2,3-diaminopropionyl(Dpa)-KK-NH2, reference compound]	0.56	no cleavage was observed	
KY(NO2)SENESRGK(Abz)IYYKKG (K[Tyr(3-NO2)]SENESRGK(2Abz)IYYKKG) [Compound 26]			~3
KY(NO2)TESESRGK(Abz)IYYKKG (K[Tyr(3-NO2)]TESESRGK(Abz)IYYKKG) [Compound 3]			~4
